Data on 48 compounds can be found in ChEMBL document CHEMBL1153595, “Structure-based design and parallel synthesis of N-benzyl isatin oximes as JNK3 MAP kinase inhibitors” (Bioorg Med Chem Lett, 2009).

Molecules are shown by their SMILES. Some results are limits rather than exact numbers.

In experiment [1] the target is Mitogen-activated protein kinase 10 (Homo sapiens, UniProt P53779). Nature of the experiment: Inhibition of JNK3 by spectrophotometric coupled enzyme assay.
The target in experiment [2] is Mitogen-activated protein kinase 14 (Homo sapiens, UniProt Q16539). Description: Inhibition of p38alpha by spectrophotometric coupled enzyme assay.
The target of experiment [3] is Mitogen-activated protein kinase 1 (Homo sapiens, UniProt P28482). Nature of the experiment: Inhibition of ERK2 by spectrophotometric coupled enzyme assay.
The target in experiment [4] is Mitogen-activated protein kinase 9 (Homo sapiens, UniProt P45984). Description: Inhibition of JNK2.
Experiment [5] has as its target Cyclin-dependent kinase 2 (Homo sapiens, UniProt P24941). Description: Inhibition of CDK2.
In experiment [6] the target is Glycogen synthase kinase-3 beta (Homo sapiens, UniProt P49841). Description: Inhibition of GSK3-beta.
For experiment [7], the target named is RAC-gamma serine/threonine-protein kinase (Homo sapiens, UniProt Q9Y243). Description: Inhibition of AKT3.
Experiment [8] concerns the target Proto-oncogene tyrosine-protein kinase Src (Homo sapiens, UniProt P12931). Nature of the experiment: Inhibition of Src.
The target in experiment [9] is Tyrosine-protein kinase Lck (Homo sapiens, UniProt P06239). Nature of the experiment: Inhibition of LCK.
Experiment [10] has as its target Mitogen-activated protein kinase 8 (Homo sapiens, UniProt P45983). Nature of the experiment: Inhibition of JNK1.
In experiment [11] the target is T1, Receptor-type tyrosine-protein kinase FLT3 (Homo sapiens, UniProt P36888).
T1 sequence (P36888 whole entry): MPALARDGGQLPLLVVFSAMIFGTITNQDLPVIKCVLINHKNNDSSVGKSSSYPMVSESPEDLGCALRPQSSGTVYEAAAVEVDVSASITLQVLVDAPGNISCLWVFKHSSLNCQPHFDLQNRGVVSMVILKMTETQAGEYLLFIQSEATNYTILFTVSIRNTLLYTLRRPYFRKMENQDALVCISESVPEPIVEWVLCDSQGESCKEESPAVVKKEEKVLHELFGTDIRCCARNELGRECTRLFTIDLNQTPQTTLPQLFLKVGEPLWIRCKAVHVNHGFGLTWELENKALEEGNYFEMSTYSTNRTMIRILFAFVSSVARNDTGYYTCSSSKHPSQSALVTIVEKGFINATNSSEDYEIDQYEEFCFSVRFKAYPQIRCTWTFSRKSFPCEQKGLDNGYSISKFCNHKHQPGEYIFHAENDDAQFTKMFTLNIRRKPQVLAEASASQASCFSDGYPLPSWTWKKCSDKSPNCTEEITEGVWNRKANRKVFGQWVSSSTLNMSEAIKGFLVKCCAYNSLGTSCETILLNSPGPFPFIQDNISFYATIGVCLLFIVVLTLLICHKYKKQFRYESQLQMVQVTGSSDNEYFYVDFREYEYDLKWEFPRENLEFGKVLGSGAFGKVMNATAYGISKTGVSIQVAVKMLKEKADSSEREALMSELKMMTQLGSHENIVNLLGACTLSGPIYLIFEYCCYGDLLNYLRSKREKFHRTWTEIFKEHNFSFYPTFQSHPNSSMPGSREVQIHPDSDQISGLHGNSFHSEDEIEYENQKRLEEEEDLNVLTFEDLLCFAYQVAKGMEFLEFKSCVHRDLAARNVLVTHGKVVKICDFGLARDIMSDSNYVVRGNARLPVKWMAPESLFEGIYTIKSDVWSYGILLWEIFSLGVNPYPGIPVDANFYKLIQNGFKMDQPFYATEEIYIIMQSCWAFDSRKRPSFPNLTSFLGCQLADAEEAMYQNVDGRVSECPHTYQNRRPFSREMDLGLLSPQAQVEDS
Description: Inhibition of FLT3.

The target of experiment [12] is Rho-associated protein kinase 1 (Homo sapiens, UniProt Q13464). Nature of the experiment: Inhibition of ROCK1.
The target in experiment [13] is T2, Tyrosine-protein kinase JAK3 (Homo sapiens, UniProt P52333).
T2 sequence (P52333 whole entry): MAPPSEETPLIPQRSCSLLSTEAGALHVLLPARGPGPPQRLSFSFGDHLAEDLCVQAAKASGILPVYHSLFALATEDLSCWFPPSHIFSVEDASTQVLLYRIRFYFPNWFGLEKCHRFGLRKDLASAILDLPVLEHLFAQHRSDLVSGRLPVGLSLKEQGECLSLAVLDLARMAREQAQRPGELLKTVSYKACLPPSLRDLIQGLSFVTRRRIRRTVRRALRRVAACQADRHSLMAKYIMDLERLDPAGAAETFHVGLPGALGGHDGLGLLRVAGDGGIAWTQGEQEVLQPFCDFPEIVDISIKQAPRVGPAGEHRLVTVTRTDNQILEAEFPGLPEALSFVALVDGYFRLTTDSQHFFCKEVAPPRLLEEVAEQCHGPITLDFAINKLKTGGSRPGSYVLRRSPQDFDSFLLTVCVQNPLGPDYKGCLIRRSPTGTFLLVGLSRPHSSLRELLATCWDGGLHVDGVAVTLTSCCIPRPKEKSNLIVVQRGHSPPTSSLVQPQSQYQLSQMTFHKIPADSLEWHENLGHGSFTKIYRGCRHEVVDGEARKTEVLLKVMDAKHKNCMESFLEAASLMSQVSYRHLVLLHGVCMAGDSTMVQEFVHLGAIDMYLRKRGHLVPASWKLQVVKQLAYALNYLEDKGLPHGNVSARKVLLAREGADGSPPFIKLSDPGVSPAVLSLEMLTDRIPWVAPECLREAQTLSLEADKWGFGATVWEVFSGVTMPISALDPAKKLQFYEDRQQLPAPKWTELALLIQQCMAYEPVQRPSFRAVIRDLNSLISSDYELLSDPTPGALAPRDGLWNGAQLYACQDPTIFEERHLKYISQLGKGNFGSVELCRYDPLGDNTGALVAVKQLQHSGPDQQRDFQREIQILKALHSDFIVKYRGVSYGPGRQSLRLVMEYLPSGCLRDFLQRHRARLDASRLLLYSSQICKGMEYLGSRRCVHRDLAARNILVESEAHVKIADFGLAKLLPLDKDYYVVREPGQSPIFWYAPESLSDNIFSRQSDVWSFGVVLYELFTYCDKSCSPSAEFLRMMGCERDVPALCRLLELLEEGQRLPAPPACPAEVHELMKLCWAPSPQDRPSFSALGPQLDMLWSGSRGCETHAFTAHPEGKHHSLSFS
Nature of the experiment: Inhibition of JAK3.

Another experiment has as its target Angiopoietin-1 receptor (Homo sapiens, UniProt Q02763). Nature of the experiment: Inhibition of Tie2.

Mitogen-activated protein kinase 10, sequence (P53779 whole entry): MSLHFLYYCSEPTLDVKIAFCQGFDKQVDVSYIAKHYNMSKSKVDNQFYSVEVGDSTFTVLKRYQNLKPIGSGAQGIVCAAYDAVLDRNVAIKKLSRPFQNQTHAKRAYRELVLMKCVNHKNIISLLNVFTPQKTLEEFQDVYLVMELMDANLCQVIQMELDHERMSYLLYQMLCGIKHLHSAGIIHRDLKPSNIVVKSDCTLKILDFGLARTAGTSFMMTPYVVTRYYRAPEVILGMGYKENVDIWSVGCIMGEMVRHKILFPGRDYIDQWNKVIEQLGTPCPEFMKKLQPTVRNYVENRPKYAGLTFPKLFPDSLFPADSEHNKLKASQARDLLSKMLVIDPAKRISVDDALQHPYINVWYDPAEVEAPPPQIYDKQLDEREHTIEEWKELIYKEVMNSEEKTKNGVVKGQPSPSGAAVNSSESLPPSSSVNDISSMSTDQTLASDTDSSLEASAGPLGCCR
Mitogen-activated protein kinase 1, sequence (P28482 whole entry): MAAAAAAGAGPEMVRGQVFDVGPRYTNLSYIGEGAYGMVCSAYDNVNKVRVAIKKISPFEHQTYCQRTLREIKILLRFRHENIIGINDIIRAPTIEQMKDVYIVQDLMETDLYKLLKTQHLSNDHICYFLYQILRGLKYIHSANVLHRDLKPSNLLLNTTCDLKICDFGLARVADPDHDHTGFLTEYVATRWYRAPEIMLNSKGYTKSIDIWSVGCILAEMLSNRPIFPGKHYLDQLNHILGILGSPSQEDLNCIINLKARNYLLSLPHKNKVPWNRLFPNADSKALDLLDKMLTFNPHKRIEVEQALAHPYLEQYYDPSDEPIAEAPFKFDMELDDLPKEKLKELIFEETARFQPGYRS
Mitogen-activated protein kinase 14, sequence (Q16539 whole entry): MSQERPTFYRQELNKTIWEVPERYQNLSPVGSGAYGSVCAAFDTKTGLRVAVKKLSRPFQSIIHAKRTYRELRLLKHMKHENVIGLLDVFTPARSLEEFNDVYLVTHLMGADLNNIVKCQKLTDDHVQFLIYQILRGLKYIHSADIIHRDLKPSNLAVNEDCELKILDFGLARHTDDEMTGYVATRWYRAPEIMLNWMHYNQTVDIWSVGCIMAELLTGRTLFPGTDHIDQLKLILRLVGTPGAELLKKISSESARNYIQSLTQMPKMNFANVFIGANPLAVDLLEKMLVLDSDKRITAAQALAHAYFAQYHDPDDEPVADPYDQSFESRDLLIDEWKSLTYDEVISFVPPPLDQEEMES
Tyrosine-protein kinase Lck, sequence (P06239 whole entry): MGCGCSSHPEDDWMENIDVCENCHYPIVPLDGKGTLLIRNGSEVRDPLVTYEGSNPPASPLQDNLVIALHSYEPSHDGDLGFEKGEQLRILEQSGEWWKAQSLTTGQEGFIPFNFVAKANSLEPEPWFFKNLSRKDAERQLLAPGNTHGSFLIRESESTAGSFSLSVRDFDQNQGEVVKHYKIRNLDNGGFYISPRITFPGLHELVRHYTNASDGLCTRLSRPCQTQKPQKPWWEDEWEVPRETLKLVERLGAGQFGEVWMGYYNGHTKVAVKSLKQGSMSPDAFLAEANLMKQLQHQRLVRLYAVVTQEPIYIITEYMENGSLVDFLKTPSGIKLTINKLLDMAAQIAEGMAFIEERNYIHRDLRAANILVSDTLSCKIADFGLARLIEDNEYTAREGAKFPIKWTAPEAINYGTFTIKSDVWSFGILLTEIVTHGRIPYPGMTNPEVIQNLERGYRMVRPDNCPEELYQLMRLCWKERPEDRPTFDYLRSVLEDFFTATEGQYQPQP
Rho-associated protein kinase 1, sequence (Q13464 whole entry): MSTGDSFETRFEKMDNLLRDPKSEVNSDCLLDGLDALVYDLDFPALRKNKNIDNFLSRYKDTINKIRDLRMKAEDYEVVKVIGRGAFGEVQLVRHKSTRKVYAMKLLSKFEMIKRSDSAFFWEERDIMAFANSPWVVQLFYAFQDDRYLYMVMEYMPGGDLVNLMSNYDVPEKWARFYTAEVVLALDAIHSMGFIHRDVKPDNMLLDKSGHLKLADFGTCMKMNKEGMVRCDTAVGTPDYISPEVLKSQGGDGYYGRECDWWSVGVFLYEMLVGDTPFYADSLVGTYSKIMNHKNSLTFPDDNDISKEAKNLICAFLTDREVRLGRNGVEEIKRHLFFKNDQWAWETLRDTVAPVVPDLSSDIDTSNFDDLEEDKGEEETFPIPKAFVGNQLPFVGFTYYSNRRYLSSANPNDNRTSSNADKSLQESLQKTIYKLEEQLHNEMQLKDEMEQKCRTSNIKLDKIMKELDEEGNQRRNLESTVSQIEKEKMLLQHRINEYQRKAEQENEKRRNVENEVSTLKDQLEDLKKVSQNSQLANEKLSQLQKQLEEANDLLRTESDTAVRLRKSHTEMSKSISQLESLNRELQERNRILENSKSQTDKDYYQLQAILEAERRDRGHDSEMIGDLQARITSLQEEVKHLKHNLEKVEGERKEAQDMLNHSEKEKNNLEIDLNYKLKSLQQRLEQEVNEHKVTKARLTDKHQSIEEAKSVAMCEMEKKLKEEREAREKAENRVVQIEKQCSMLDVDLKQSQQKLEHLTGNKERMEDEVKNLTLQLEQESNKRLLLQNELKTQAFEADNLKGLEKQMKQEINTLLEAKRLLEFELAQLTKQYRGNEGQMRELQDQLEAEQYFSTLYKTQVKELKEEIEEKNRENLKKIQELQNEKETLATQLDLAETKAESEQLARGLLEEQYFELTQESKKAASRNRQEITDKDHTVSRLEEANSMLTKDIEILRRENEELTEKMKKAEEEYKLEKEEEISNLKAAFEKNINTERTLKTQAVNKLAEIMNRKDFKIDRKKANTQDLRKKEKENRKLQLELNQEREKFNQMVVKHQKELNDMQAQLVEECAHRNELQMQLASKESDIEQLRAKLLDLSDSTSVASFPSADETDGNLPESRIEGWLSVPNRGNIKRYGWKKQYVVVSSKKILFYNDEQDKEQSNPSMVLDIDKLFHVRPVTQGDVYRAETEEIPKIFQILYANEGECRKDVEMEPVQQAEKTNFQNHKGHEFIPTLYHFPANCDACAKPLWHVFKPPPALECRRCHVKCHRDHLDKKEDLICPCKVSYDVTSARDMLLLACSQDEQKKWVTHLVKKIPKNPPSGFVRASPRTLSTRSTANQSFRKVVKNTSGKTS
Angiopoietin-1 receptor, sequence (Q02763 whole entry): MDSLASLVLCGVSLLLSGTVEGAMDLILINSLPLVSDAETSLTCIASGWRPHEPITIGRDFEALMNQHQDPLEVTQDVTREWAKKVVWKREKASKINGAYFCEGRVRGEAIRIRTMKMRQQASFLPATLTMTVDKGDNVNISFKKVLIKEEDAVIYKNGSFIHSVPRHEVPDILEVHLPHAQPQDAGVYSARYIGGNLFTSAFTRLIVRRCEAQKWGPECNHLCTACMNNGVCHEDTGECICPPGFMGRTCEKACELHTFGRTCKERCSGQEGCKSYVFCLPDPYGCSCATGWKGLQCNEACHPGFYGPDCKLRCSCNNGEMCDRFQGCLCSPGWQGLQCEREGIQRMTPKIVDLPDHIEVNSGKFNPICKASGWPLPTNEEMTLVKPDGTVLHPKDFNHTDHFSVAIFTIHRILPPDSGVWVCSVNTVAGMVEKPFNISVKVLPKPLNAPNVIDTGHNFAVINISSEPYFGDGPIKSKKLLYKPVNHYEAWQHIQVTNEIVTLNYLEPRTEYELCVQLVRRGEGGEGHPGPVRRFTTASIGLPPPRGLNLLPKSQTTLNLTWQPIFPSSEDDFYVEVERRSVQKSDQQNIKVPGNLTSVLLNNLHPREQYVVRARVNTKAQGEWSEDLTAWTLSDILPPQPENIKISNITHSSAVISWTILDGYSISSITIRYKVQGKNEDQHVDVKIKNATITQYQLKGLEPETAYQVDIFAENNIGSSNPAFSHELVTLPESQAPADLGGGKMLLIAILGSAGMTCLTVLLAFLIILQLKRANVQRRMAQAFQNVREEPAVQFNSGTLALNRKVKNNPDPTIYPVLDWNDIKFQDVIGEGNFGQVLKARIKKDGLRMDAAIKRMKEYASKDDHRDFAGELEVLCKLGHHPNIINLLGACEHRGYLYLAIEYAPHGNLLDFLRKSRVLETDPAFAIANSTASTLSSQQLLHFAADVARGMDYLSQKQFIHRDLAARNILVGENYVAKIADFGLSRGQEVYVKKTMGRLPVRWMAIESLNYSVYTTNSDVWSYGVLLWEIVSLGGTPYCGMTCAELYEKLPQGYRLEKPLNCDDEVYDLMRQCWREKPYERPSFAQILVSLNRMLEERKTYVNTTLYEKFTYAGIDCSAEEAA
Mitogen-activated protein kinase 9, sequence (P45984 whole entry): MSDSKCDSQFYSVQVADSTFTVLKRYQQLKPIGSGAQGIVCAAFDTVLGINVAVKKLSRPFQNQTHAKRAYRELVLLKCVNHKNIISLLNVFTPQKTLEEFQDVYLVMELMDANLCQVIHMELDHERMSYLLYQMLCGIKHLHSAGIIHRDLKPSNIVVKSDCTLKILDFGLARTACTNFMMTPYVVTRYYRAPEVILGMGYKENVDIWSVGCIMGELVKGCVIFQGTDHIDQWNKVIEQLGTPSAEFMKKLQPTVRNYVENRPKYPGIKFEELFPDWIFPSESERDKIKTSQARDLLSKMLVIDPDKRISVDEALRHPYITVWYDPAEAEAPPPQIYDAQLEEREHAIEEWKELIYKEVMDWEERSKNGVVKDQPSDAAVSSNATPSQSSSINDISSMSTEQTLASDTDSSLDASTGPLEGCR
Glycogen synthase kinase-3 beta, sequence (P49841 whole entry): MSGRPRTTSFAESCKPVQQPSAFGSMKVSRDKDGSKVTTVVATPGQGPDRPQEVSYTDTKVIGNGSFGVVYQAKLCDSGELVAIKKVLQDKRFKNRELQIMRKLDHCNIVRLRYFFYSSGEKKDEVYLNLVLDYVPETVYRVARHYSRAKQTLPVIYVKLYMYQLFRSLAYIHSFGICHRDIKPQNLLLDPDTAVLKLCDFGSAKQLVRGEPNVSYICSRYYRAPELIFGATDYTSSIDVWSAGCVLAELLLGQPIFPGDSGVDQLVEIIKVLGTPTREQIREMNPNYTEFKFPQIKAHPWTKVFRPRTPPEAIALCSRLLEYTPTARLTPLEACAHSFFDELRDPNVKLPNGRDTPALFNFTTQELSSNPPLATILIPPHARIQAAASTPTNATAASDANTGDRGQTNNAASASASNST

With `O=Nc1c(O)n(Cc2cccc(C(F)(F)F)c2)c2ccccc12`, in experiment [1], the inhibition constant Ki (usually a dissociation constant, usually derived from enzyme kinetics or from competition with a known ligand) amounted to 5.2 µM. Same read-out and setting: under `O=Nc1c(O)n(Cc2ccc(Cl)cc2)c2ccccc12` stands 6.7 µM; under `O=Nc1c(O)n(Cc2cccc(Cl)c2)c2ccccc12`, 5 µM; under `O=Nc1c(O)n(Cc2ccccc2)c2ccccc12`, > 10 µM. On the same count and under the same terms, in the case of `Cc1ccc(Cn2c(O)c(N=O)c3ccccc32)cc1` it was 9.9 µM. For `O=C1/C(=N\O)c2c(-c3ccccc3)cccc2N1Cc1cc(F)cc2c1OCOC2`, the inhibition constant Ki in experiment [2] amounted to 9.5 µM; in [3] it was 25 µM. In experiment [1], `O=C1/C(=N\O)c2ccc(Br)cc2N1Cc1cc(F)cc2c1OCOC2` registered an inhibitory constant (Ki) of 0.1 µM. In experiment [1], `O=C1/C(=N\O)c2ccc(-c3ccccc3)cc2N1Cc1cc(F)cc2c1OCOC2` displayed an inhibitory constant (Ki) of 0.2 µM. On the same count and under the same terms, under `COc1cc(CN2C(=O)/C(=N\O)c3ccccc32)cc(OC)c1` stands 0.99 µM; under `Cc1cccc(CN2C(=O)/C(=N\O)c3cc(C)ccc32)c1`, > 10 µM; under `COc1cc(CN2C(=O)/C(=N\O)c3cc(F)ccc32)cc(OC)c1`, 0.79 µM. Consider `Cc1ccc2c(c1)N(Cc1cc(F)cc3c1OCOC3)C(=O)/C2=N\O`, for which the Ki is 0.07 µM in [4]; > 20 µM in experiment [2]; > 30 µM in experiment [5]; > 30 µM in experiment [6]; 0.09 µM in [1]; > 30 µM in experiment [7]. For the same compound, the inhibitory constant (Ki) in experiment [8] was > 30 µM; in experiment [9], > 30 µM; in experiment [10], 0.45 µM; in experiment [11], 4 µM; in experiment [3], > 50 µM; in experiment [12], > 30 µM. Moreover, the Ki in experiment [13] is > 30 µM; on Angiopoietin-1 receptor it was > 10 µM. For `O=C1/C(=N\O)c2ccc([N+](=O)[O-])cc2N1Cc1cc(F)cc2c1OCOC2`, in experiment [1], the inhibition constant Ki was 0.64 µM. That is a sub-micromolar value.

Turning to `O=C1/C(=N\O)c2cc(OC(F)(F)F)ccc2N1Cc1cc(F)cc2c1OCOC2`, the inhibition constant (Ki) in experiment [1] amounted to 1.7 µM. Same read-out and setting: under `O=C1/C(=N\O)c2ccccc2N1Cc1ccc(F)cc1` stands 8.3 µM; under `CCC(=O)Nc1ccc2c(c1)N(Cc1cc(F)cc3c1OCOC3)C(=O)/C2=N\O`, 0.61 µM.

With `O=C1/C(=N\O)c2ccccc2N1Cc1cc(F)cc2c1OCOC2`, the affinity in experiment [1], expressed as Ki, was 0.51 µM.

With `O=C1/C(=N\O)c2cc(Br)ccc2N1Cc1ccccc1`, the affinity in [1], expressed as Ki, was 2.5 µM.

With `Cc1ccc2c(c1)/C(=N/O)C(=O)N2c1ccccc1`, the Ki in experiment [1] is > 30 µM.

As for `CCc1cccc2c1/C(=N/O)C(=O)N2Cc1cc(F)cc2c1OCOC2`, the Ki in experiment [1] was 1.4 µM; in experiment [3], > 15 µM. For `N#Cc1cccc2c1/C(=N/O)C(=O)N2Cc1cc(F)cc2c1OCOC2`, the inhibition constant (Ki) in experiment [1] was 2 µM. This lies in the single-digit micromolar range. The same measure, in the same setting: in the case of `O=C1/C(=N\O)c2ccc(C(F)(F)F)cc2N1Cc1cc(F)cc2c1OCOC2` it was 0.33 µM.

Consider `O=C(O)c1ccc2c(c1)N(Cc1cc(F)cc3c1OCOC3)C(=O)/C2=N\O`, for which, in experiment [1], the affinity corresponds to a Ki of 0.3 µM. `O=C1/C(=N\O)c2c(-c3cccc(F)c3)cccc2N1Cc1cc(F)cc2c1OCOC2`: the values for the inhibitory constant (Ki) in experiment [2], in experiment [1] and in experiment [3] were 7.4 µM, 5.8 µM and 23 µM, respectively.

Regarding `Cc1cccc2c1/C(=N/O)C(=O)N2Cc1cc(F)cc2c1OCOC2`, the values for the inhibitory constant (Ki) in experiment [1] and in experiment [3] were 0.7 µM and > 15 µM, respectively. Compound `Cc1cccc(CN2C(=O)/C(=N\O)c3ccccc32)c1` displayed a Ki in experiment [1] of 6.8 µM. Same read-out and setting: in the case of `O=C1/C(=N\O)c2cc(F)ccc2N1Cc1ccccc1` it was > 10 µM; in that of `Cc1ccc2c(c1)/C(=N/O)C(=O)N2Cc1cccc(C(F)(F)F)c1`, 2.7 µM. As for `COC(=O)c1cccc2c1/C(=N/O)C(=O)N2Cc1cc(F)cc2c1OCOC2`, the inhibition constant (Ki) was 30 µM in experiment [1] and > 15 µM in experiment [3]. Take `O=C1/C(=N\O)c2c(CCc3ccccc3)cccc2N1Cc1cc(F)cc2c1OCOC2`: the Ki in experiment [2] was 0.03 µM; in experiment [1] it was > 15 µM; in experiment [3], > 15 µM. In experiment [1], `O=C1/C(=N\O)c2ccccc2N1Cc1ccc([N+](=O)[O-])cc1` yielded an inhibition constant Ki of 7 µM. On the same count and under the same terms, under `Cc1ccc2c(c1)/C(=N/O)C(=O)N2Cc1ccccc1` stands > 10 µM; under `O=C1/C(=N\O)c2cc(Cl)ccc2N1Cc1cc(F)cc2c1OCOC2`, 0.74 µM; under `COc1ccc2c(c1)N(Cc1cc(F)cc3c1OCOC3)C(=O)/C2=N\O`, 0.24 µM. For the compound `O=C1/C(=N\O)c2c(/C=C/c3ccccc3)cccc2N1Cc1cc(F)cc2c1OCOC2`, in [2], the inhibition constant (Ki) was found to be 0.23 µM. In the case of `Nc1ccc2c(c1)N(Cc1cc(F)cc3c1OCOC3)C(=O)/C2=N\O`, affinity in experiment [1] was put at a Ki of 0.4 µM. This lies in the sub-micromolar range. On the same count and under the same terms, under `CCNC(=O)c1ccc2c(c1)N(Cc1cc(F)cc3c1OCOC3)C(=O)/C2=N\O` stands 1 µM; under `O=C1/C(=N\O)c2ccccc2N1Cc1ccccc1F`, 8.5 µM. For `O=C1/C(=N\O)c2c(Br)cccc2N1Cc1cc(F)cc2c1OCOC2`, the Ki in experiment [2] is > 10 µM; in experiment [1], 0.185 µM; in experiment [3] it was > 15 µM. Regarding `O=C1/C(=N\O)c2ccccc2N1Cc1ccccc1[N+](=O)[O-]`, the Ki in experiment [1] was > 10 µM. For `C=Cc1cccc2c1/C(=N/O)C(=O)N2Cc1cc(F)cc2c1OCOC2`, the inhibition constant Ki in experiment [2] was 8 µM; in experiment [1] it was 0.14 µM; in [3], > 15 µM. As for `COC(=O)c1ccc2c(c1)N(Cc1cc(F)cc3c1OCOC3)C(=O)/C2=N\O`, in [1], the affinity, expressed as Ki, was 0.16 µM. This counts as sub-micromolar. For the compound `O=C1/C(=N\O)c2c(-c3ccc(F)cc3)cccc2N1Cc1cc(F)cc2c1OCOC2`, the inhibition constant (Ki) is 3.4 µM in experiment [2], 13 µM in experiment [1] and > 15 µM in [3]. In the case of `O=C1/C(=N\O)c2ccccc2N1Cc1cccc(F)c1`, the Ki in [1] came out at 8.1 µM. In turn, `CS(=O)(=O)Nc1ccc2c(c1)N(Cc1cc(F)cc3c1OCOC3)C(=O)/C2=N\O` showed an inhibitory constant (Ki) in [1] of 0.46 µM. This Ki is about 18-fold lower than that of the compound before. The same measure, in the same setting: in the case of `COc1ccc(CN2C(=O)/C(=N\O)c3cc(F)ccc32)cc1` it was 1.6 µM. On the same count and under the same terms, under `O=C1/C(=N\O)c2ccccc2N1Cc1cccc([N+](=O)[O-])c1` stands 0.94 µM; under `O=C1/C(=N\O)c2cc(Cl)ccc2N1Cc1ccccc1`, 12 µM.
